Structures are written as SMILES.

The target of this test is T1, SMS2 (sphingomyelin synthase 2) (Mus musculus, UniProt Q9D4B1).
T1 construct: gene Sgms2; native enzyme in liver homogenate of SMS1 KO mice
T1 sequence (Q9D4B1 1-365): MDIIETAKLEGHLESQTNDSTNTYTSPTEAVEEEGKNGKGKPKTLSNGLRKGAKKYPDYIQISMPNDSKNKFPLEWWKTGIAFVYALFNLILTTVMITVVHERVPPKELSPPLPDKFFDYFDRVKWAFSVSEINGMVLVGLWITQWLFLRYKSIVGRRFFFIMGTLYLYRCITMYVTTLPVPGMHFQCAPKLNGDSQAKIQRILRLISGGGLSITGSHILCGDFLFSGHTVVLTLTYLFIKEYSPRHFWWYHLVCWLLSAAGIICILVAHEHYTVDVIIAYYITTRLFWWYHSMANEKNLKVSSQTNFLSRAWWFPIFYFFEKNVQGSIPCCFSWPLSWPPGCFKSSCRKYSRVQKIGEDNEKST
In words: SMS activity assay in SMS1 KO mouse liver homogenate. The class given is cell-based.

For the molecule `N#CC(Nc1ccccc1)c1ccccc1OCc1ccccc1` (stereo not shown) [Dy105, 2-(2-(benzyloxy)phenyl)-2-(phenylamino) acetonitrile], the “SMS activity assay in SMS1 KO mouse liver homogenate” value was “we found the compound can inhibit SMS2 but not SMS1 activity (Fig. 3A and B) in the liver”.
